Source: article PMC6470523, “Introduction of Nonacidic Side Chains on 6-Ethylcholane Scaffolds in the Identification of Potent Bile Acid Receptor Agonists with Improved Pharmacokinetic Properties” (Molecules, 2019)
Converted amounts (≈) assume the structure as drawn.

Assays:
[1] = Liver microsomal stability; type: in vitro ADME, mouse; conditions: liver microsomes; for microsomal CLint at 1 µM / half-life at 1 µM: male, CD-1, mouse, pH 7.4, 1 μM compound, 37 °C; for half-life at 1 µM: read-out: t½
Protocol: (§1) Chromatography was performed using an Alliance pump system coupled to a Q-ToF Premiere (Waters Co., Milford, MA, USA). The mixture was separated on a Luna 5 µm C8(2) 100° A 150 × 2 mm from Phenomenex. The mobile phase consisted of 0.2% formic acid (FA) in water as solvent A and 0.2% FA in acetonitrile as solvent B at a flow rate of 200 μL/min. The gradient was as follows: 0–2 min (70% A and 30% B), 2–20 min (5% A and 95% B), 20–30 min (70% A and 30% B). The detection of analytes was achieved by electrospray ionization (ESI) in the positive mode with the appropriate MS/MS transitions, if necessary.
Male mouse (CD-1) liver microsomes (Sigma-Aldrich, St. Louis, MO, USA) were used. All incubations were performed in duplicate in a shaking water bath at 37 °C. The incubation mixtures contained 1 μM compound with 1% DMSO used as a vehicle, mouse liver microsomes (0.3 mg of microsomal protein per mL), 5 mM MgCl2, 1 mM NADP, 5 mM glucose 6-phosphate, 0.4 U·mL^−1 glucose 6-phosphate dehydrogenase, and 50 mM potassium phosphate buffer (pH 7.4) in a final volume of 0.5 mL. Aliquots were removed at 0, 5, 10, 20, 30, and 40 min after microsome addition and the reaction was stopped by adding 200 μL of ice-cold acetonitrile. After two hours, the samples were centrifuged for 10 min at 10,000 rpm, and the supernatants were transferred in matrix tubes for LC-MS/MS analysis. LC-MS/MS analysis were carried out setting the m/z window around the value of the MH^+ of the unmodified compounds.
Propranolol, known as a high hepatic clearance drug in rodents, was used as a quality-control compound for the microsomal incubations. The slope of the linear regression of the curve obtained reporting the natural logarithm of compound area versus incubation time (−k) was used in the conversion to in vitro t1/2 values by t1/2 = −ln(2)/k. In vitro intrinsic clearance (Clint expressed as μL/min/mg) was calculated according to the following formula: Clint = volume of reaction (µL)/t1/2(min)/protein of liver microsomes (mg). The percentage of unmodified compound has been calculated assuming the area of the compound peak at time 0 min as 100%.

human FXR = molecular target: T1, human FXR (Homo sapiens, UniProt Q96RI1); experiment: FXR transactivation luciferase reporter assay in HepG2 cells; type: cell-based; conditions: for EC50: dose response 0.5 to 50 µM, 18 h; for EC50 / FXR Eff (%) vs 6-ECDCA / FXR Eff (%) vs CDCA: HepG2 cells; for FXR Eff (%) vs 6-ECDCA: maximum efficacy of compound (10 µM) relative to 6-ECDCA (1 µM) set as 100%; for FXR Eff (%) vs 6-ECDCA / FXR Eff (%) vs CDCA: FRE transactivation; for FXR Eff (%) vs CDCA: maximum efficacy of compound (10 µM) relative to CDCA (10 μM) set as 100%; for FXR activity (in words): transactivation assay
T1 construct: expressed in transfected cells; host or cells: HepG2
T1 sequence (Q96RI1 1-486): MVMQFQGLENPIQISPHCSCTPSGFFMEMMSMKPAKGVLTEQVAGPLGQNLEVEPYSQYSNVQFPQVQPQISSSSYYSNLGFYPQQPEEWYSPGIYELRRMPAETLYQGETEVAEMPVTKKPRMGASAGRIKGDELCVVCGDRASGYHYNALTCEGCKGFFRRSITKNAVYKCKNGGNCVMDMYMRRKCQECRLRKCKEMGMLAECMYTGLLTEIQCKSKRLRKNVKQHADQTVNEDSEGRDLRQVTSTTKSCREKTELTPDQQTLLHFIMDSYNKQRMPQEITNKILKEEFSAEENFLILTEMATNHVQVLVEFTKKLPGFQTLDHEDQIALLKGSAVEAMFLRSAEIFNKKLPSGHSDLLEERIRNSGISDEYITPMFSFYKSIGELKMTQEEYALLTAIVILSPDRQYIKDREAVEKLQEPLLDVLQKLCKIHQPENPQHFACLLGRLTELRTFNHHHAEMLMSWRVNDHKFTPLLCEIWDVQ
T1 sequence (P19793 1-462 partner): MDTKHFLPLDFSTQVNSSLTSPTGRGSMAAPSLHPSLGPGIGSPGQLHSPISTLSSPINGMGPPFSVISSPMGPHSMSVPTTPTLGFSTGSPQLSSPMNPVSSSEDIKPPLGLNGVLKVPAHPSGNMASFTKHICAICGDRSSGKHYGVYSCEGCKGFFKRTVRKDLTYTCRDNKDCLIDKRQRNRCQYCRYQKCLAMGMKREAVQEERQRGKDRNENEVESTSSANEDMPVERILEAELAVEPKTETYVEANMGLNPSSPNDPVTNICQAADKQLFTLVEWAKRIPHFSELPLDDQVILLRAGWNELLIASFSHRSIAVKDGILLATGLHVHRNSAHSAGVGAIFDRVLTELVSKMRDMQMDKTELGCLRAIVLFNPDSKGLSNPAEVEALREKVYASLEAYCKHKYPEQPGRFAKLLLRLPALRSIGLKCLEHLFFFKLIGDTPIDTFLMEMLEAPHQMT
Protocol: (§2) To evaluate FXR mediated transactivation, HepG2 cells were transfected with 100 ng of human pSG5-FXR, 100 ng of human pSG5-RXR, 200 ng of the reporter vector p(hsp27)-TK-LUC containing the FXR response element IR1 cloned from the promoter of heat shock protein 27 (hsp27) and with 100 ng of pGL4.70 (Promega), a vector encoding the human Renilla gene. To evaluate GPBAR1 mediated transactivation, HEK293T cells were transfected with 200 ng of human pGL4.29 (Promega), a reporter vector containing a cAMP response element (CRE) that drives the transcription of the luciferase reporter gene luc2P, with 100 ng of pCMVSPORT6-human GPBAR1, and with 100 ng of pGL4.70. […] After treatments, 10 μL of cellular lysates were read using a Dual-Luciferase Reporter Assay System (Promega Italia srl, Milan, Italy) according manufacturer specifications using the Glomax20/20 luminometer (Promega Italia srl, Milan, Italy). Luciferase activities were assayed and normalized with Renilla activities.
(§3) At 18 h post stimulations, cellular lysates were assayed for luciferase and Renilla activities using the Dual-Luciferase Reporter Assay System (E1980, Promega Italia srl, Milan, Italy). Luminescence was measured using Glomax 20/20 luminometer (Promega Iralia srl, Milan, Italy). Luciferase activities were normalized with Renilla activities.

[2] = Aqueous solubility measurement (PBS pH 7.4, LC-MS); type: physicochemical; conditions: aqueous buffer, kinetic from dmso stock; aqueous solubility at pH 7.4 (PBS), 24 h room temperature
Protocol: as §1
Ten microliters of a 10 mM solution in DMSO of each compound was diluted either in 490 μL of PBS pH 7.4 or in organic solvent MeOH (in triplicate). The tubes were gently shaken 24 h at room temperature, then centrifuged for 5 min at 4000 rpm. 10 microliters of sample were diluted in 490 μL of MeOH. The solubility is determined by the ratio of mass signal area PBS/organic solvent.

human GPBAR1 = molecular target: T2, human GPBAR1 (Homo sapiens, UniProt Q8TDU6); experiment: GPBAR1 transactivation (CRE luciferase reporter) assay in HEK293T cells; type: cell-based; conditions: for EC50: dose response 0.5 to 50 µM, 18 h; for GPBAR1 Eff (%) vs 6-ECDCA: maximum efficacy of compound (10 µM) relative to 6-ECDCA (1 µM) set as 100, CRE transactivation; for GPBAR1 Eff (%) vs TLCA: maximum efficacy of compound (10 µM) relative to TLCA (10 μM) set as 100, CRE transactivation
T2 construct: expressed in transfected cells; host or cells: HEK293T
T2 sequence (Q8TDU6 1-330): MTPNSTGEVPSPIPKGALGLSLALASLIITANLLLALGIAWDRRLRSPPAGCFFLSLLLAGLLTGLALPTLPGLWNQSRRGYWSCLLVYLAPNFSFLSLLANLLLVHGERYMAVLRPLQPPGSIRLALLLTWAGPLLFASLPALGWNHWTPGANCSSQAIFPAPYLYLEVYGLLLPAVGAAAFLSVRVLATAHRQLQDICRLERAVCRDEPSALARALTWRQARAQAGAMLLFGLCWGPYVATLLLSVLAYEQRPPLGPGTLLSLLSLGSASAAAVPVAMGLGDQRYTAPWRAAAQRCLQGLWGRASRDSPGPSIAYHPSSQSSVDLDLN
Protocol: as §2, §3

SMILES | Percentage of compound remaining in solution after 40 min incubation [1] [%] | microsomal CLint at 1 µM [1] [µL/min/mg] | half-life at 1 µM [1] [min] | EC50 (human FXR) [nM] | FXR Eff (%) vs 6-ECDCA (human FXR) [%] | FXR Eff (%) vs CDCA (human FXR) [%] | solubility at 24 h [2] [µM] | EC50 (human GPBAR1) [nM] | GPBAR1 Eff (%) vs 6-ECDCA (human GPBAR1) [%] | GPBAR1 Eff (%) vs TLCA (human GPBAR1) [%] | FXR activity (in words) (human FXR)
C=CC(C)C1CCC2C3C(O)C(CC)C4CC(O)CCC4(C)C3CCC12C (stereo not drawn) [compound 1, 6α-Ethyl-3α, 7α-dihydroxy-24-nor-5β-chol-23-ene] | 42.2 | 52.6 | 43.8 | 1800 ± 500 | 45.6 | 252 | 201 (≈ 75.3 µg/mL) | 140 ± 32 | 367.1 | 79 | –
CC[C@H]1[C@@H](O)[C@@H]2[C@H](CC[C@]3(C)[C@@H]([C@H](C)CCC(=O)O)CC[C@@H]23)[C@@]2(C)CC[C@@H](O)C[C@@H]12 [6-ECDCA, 6-ethylchenodeoxycholic acid, reference compound] | 26.9 | 109 | 21.1 | – | – | – | 195 (≈ 82 µg/mL) | – | – | – | –
CCC(C)C1CCC2C3C(O)C(CC)C4CCCCC4(C)C3CCC12C (stereo not drawn) [compound 5, 6α-Ethyl-7α-hydroxy-23,24-dinor-5β-cholane] | – | – | – | – | 2.5 | 14 | – | – | 53.4 | 12 | inactive
C=CC(C)C1CCC2C3C(O)C(CC)C4CCCCC4(C)C3CCC12C (stereo not drawn) [compound 4, 6α-Ethyl-7α-hydroxy-24-nor-5β-chol-23-ene] | – | – | – | – | 3.1 | 17 | – | – | 68.8 | 15 | inactive
CCC(C)C1CCC2C3C(O)C(CC)C4CC(O)CCC4(C)C3CCC12C (stereo not drawn) [compound 2, 6α-Ethyl-3α, 7α -dihydroxy-24-nor-5β-cholane] | 72.8 | 25 | 92.4 | 1300 ± 120 | 46.5 | 249 | 176 (≈ 66.3 µg/mL) | 1500 ± 290 | 255.2 | 53 | –
CCC1C(O)C2C3CCC(C(C)CO)C3(C)CCC2C2(C)CCC(O)CC12 (stereo not drawn) [compound 3, 6α-Ethyl-3α, 7α -dihydroxy-23,24-dinor-5β-cholan-22-ol] | 60.6 | 36.6 | 63 | 2800 ± 450 | 45 | 257 | 210 (≈ 79.5 µg/mL) | 430 ± 15 | 243.4 | 55 | –
